How the values were obtained:
[1] = target: T1, LmMK (recombinant, bacterially expressed) (Leishmania major, UniProt Q4Q6K7); test: X-ray crystal structure of complex, […] A (also radioactive kinase assay); format: binding
T1 construct: gene LMJF_31_0560; pET15b (NdeI/XhoI), E. coli BL21(DE3), N-terminal His-tag removed by thrombin; about 329 residues, monomer, about 35 kDa; 3 C-terminal residues disordered
T1 sequence (Q4Q6K7 1-329): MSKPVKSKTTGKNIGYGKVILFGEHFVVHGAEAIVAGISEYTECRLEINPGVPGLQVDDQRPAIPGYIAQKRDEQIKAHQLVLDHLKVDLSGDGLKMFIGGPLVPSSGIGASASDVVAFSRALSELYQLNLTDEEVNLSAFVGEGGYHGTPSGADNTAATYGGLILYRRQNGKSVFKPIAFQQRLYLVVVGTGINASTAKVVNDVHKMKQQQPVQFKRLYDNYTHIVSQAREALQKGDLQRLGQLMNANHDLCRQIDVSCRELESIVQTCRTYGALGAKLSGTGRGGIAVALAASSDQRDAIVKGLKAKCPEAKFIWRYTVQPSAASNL

TbMK (TbMK-HA) = target: T2, TbMK (TbMK-HA) (Trypanosoma brucei, UniProt Q57Y11); format: biochemical; conditions: phosphate donor; with 833 uM [3H](R)-MVA, MgCl2 5 uM, pH 7.0, 30 C
T2 construct: gene Tb04.1D20.470

[2] = target: T1, LmMK (recombinant, bacterially expressed); test: radioactive phosphorylation assay, chromatography, scintillation counting; format: biochemical

T2 sequence (Q57Y11 entry or part of it): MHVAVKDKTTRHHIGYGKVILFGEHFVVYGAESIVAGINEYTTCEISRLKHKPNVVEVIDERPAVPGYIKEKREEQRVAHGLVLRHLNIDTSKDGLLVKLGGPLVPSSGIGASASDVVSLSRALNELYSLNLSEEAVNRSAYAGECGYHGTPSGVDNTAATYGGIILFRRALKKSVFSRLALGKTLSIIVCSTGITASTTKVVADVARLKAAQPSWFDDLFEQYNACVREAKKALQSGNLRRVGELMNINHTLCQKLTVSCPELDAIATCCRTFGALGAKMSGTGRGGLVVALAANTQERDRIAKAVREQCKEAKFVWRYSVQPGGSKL

| SMILES | X-ray crystal structure of complex, 1.9 A (also radioactive kinase assay) [1] | radioactive phosphorylation assay, chromatography, scintillation counting (TbMK (TbMK-HA)) | radioactive phosphorylation assay, chromatography, scintillation counting [2] |
| --- | --- | --- | --- |
| C[C@@](O)(CCO)CC(=O)O [(R)-MVA] | The electron density clearly indicated the presence of (R)-MVA in molecule A | – | – |
| Nc1ncnc2c1ncn2[C@@H]1O[C@H](COP(=O)(O)OP(=O)(O)OP(=O)(O)O)[C@@H](O)[C@H]1O [ATP] | – | an ATP-dependent MK activity in Leishmania and Trypanosoma | Activity of LmMK was observed after incubation of the enzyme with radiolabeled [^3H] (R)-MVA and ATP |
